Laboratory results from article PMC11114116 (Molecular Pharmacology, 2024).
Like-named read-outs stand apart in the source and are kept apart here.

Tests used:
human FABP1 (hFABP1) = molecular target: T1, human FABP1 (hFABP1) (Homo sapiens, UniProt P07148); assay: DAUDA displacement assay for hFABP1 binding; settings: for Maximum decrease of DAUDA-FABP1 fluorescence at saturation: 0.3 μM FABP1, 0.5 μM DAUDA; for Fres (% Fluorescence Remaining): residual DAUDA-FABP1 fluorescence at saturating ligand (Min of eq. 7)
T1 sequence (P07148 1-127): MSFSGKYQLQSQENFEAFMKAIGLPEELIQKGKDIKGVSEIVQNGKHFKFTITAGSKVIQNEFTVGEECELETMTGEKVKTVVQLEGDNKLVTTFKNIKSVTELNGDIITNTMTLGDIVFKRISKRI

CYP2C9 = CYP2C9 (Homo sapiens, UniProt P11712); format: in vitro ADME
Sequence of CYP2C9 (P11712 whole entry): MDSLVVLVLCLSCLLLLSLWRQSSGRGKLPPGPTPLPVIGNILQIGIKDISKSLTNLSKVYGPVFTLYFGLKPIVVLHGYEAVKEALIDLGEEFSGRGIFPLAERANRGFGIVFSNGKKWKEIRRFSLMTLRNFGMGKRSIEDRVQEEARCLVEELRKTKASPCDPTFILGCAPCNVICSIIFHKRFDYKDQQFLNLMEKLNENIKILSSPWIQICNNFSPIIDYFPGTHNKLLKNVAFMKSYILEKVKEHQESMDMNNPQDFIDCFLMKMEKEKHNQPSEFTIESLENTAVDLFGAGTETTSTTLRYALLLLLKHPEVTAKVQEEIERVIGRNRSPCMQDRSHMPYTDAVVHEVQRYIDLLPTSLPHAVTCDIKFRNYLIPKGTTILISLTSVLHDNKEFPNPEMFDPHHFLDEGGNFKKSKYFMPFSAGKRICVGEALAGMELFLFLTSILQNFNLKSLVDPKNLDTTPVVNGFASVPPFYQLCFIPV

FABP2 = settings: ref Patil et al., 2014; cited from earlier work

EC50 (human FABP1 (hFABP1))	Fres (% Fluorescence Remaining) (human FABP1 (hFABP1))	SMILES	further results
> 40 µM	–	Nc1ccc(S(=O)(=O)Nc2ccnn2-c2ccccc2)cc1 [Sulfaphenazole, sulfaphenazole]	–
–	15 ± 3.0%	O=C(O)Cc1ccccc1Nc1c(Cl)cccc1Cl [Diclofenac, diclofenac]	Maximum decrease of DAUDA-FABP1 fluorescence at saturation (human FABP1 (hFABP1)): > 82%; Maximum decrease of DAUDA-FABP1 fluorescence at saturation (human FABP1 (hFABP1); listed as diclofenac): ~85%; Km at 10 min (CYP2C9; CYP2C9 Supersomes (recombinant CYP2C9) with 20 μM hFABP1, pH 7.4, Km,apparent for 4'-OH-diclofenac formation, +FABP1, nominal diclofenac concentrations, 20 μM hFABP1, 1 nM CYP2C9 Supersomes): 5.8 ± 1.5 µM; Km at 10 min (CYP2C9; CYP2C9 Supersomes (recombinant CYP2C9), without hFABP1, pH 7.4, Km,apparent for 4'-OH-diclofenac formation, −FABP1, nominal diclofenac concentrations, absence of FABP1, 1 nM CYP2C9 Supersomes): 1.4 ± 0.2 µM
–	40 ± 1.6%	C[C@@H](C(=O)O)c1ccc(-c2ccccc2)c(F)c1 [R-Flurbiprofen, (R)-flurbiprofen]	–

More lines, now with the values behind:

SMILES	EC50 (human FABP1 (hFABP1))	Fres (% Fluorescence Remaining) (human FABP1 (hFABP1))	further results
O=C(c1ccccc1)c1ccc2n1CCC2C(=O)O (centres unmarked) [Ketorolac, ketorolac]	–	–	Displacement of fluorescent probe ANS from FABP2 (FABP2): did not displace
CC(C)Cc1ccc(C(C)C(=O)O)cc1 (centres unmarked) [Ibuprofen, ibuprofen]	–	28 ± 4.9%	–
C[C@H](C(=O)O)c1ccc(-c2ccccc2)c(F)c1 [S-Flurbiprofen, (S)-flurbiprofen]	–	48 ± 1.1%	–
CCCCC/C=C\C/C=C\C/C=C\C/C=C\CCCC(=O)O [Arachidonic Acid, arachidonic acid]	0.42 ± 0.11 µM	2.2 ± 3.6%	–
CNCCC(Oc1ccc(C(F)(F)F)cc1)c1ccccc1 (centres unmarked) [fluoxetine]	–	–	Decrease of DAUDA fluorescence in initial screen (human FABP1 (hFABP1); drug at 30 μM, 0.3 μM FABP1 prebound with 0.5 μM DAUDA): All of the drugs tested except fluoxetine decreased DAUDA fluorescence
CCCCNC(=O)NS(=O)(=O)c1ccc(C)cc1 [Tolbutamide, tolbutamide]	> 40 µM	–	–
Cc1ccc(C)c(OCCCC(C)(C)C(=O)O)c1 [Gemfibrozil, gemfibrozil]	5.6 ± 1.7 µM	18 ± 2.8%	Maximum decrease of DAUDA-FABP1 fluorescence at saturation (human FABP1 (hFABP1)): > 82%
CCc1ccc(CCOc2ccc(CC3SC(=O)NC3=O)cc2)nc1 (centres unmarked) [Pioglitazone, pioglitazone]	–	5.2 ± 2.4%	Maximum decrease of DAUDA-FABP1 fluorescence at saturation (human FABP1 (hFABP1)): > 82%
CC(C(=O)O)c1ccc(-c2ccccc2)c(F)c1 (centres unmarked) [flurbiprofen]	–	–	Kd (human FABP1 (hFABP1)): 2 to 10 µM
